The text below walks through data of patent US20250257055A1, “TERTIARY AMIDE DERIVATIVES SUBSTITUTED WITH 4-MEMBERED RING STRUCTURE” (Sumitomo Pharma Co., Ltd., priority 2024, published 2025).

Each structure is given as a SMILES string. Where two headings read alike, the source gives them in different places.

The IC50 is the concentration at which inhibition is half-maximal. For orientation: AUC means concentration integrated over time. A word on the clearance: it is the rate of elimination divided by the concentration. The low end stands for inefficient removal, the high end for efficient removal. As usually defined, the half-life is the time in which the quantity being followed falls by half. High values mean slow loss, low ones fast loss. In general, Cmax refers to the maximum level reached in the sampled fluid or tissue.

The target of data set [1] is recombinant p300 (Homo sapiens (Human), UniProt Q09472). The data set can be described thus: HAT activity inhibition experiment (SensoLyte HAT(p300) Assay Kit). In kind it is biochemical. Conditions: recombinant p300, histone H3 peptide, acetyl CoA. The procedure:
The HAT activity inhibitory ability of HAT inhibitors was evaluated using SensoLyte HAT(p300) Assay Kit (ANASPEC, AS-72172). Specifically, 7.5 μL of the compound of Examples […] diluted with assay buffer was added to 7.5 μL of recombinant p300 solution diluted 10 times with assay buffer, and the mixture was incubated at room temperature for 10 minutes. 7.5 μL of acetyl CoA solution diluted 10 times with assay buffer and 15 μL of histone H3 peptide diluted 10 times with assay buffer were added thereto, and the mixture was incubated at 37° C. for 30 minutes. 37.5 μL of Stop Solution was added to stop the reaction. 75 μL of p300 Developer solution diluted 50 times with assay buffer was added, and the mixture was incubated at room temperature for 30 minutes under light-shielded conditions. The fluorescence at 513 nm when irradiated with 389 nm excitation light was measured using a multiplate reader.

Data set [2] deals with G-401 cells. The data set can be described thus: Cell proliferation inhibition experiment using G-401 cells. In kind it is cell-based. The conditions noted are these: Homo sapiens, 72 h, cultured for 3 days, CellTiter-Glo. The procedure:
G-401 cells (derived from malignant rhabdoid tumor) were obtained from the American Type Culture Collection (ATCC). G-401 cells were cultured in McCoy's 5A medium containing 10% fetal bovine serum and 1% penicillin/streptomycin under conditions of 37° C. and 5% CO2.
500 cells per well were seeded in a 384-well plate. One day after seeding, Examples 1 to 35 were added so that the final concentration of DMSO was 0.1%, and the cells were cultured for 3 days. After the culture was completed, the cell viability was measured using CellTiter-Glo Luminescent Cell Viability Assay (Promega, G7570).

The nature of data set [3]: Membrane permeability test (PAMPA). It counts as in vitro ADME. On the procedure:
The membrane permeability of the test compound was tested by parallel artificial membrane permeability assay (PAMPA) as follows. 200 μL of System solution (pION Inc.) containing the test compound and 4 μL of GIT Lipid-0 (pION Inc.) were added to the donor plate. 200 μL of Acceptor Sink Buffer (pION Inc.) was added to the acceptor plate. Both plates were overlapped and incubated at 37° C. for 4 hours, after which the UV of the solutions on the acceptor side and donor side was measured using a UV plate reader (190-500 nm). Compounds with poor UV absorption were measured using LC-MS. The permeability coefficient Pe (10^−6 cm/sec) of the drug was calculated using the following equation.

Data set [4] is described as follows: Pharmacokinetic study in mice. In kind it is in vivo. The conditions noted are these: for AUC / clearance / half-life / Vd / Cmax: female, BALB/c (BALB/cAnN CrlCrlj), mouse, plasma; for Vd: read-out: Vdss. The procedure: The test compound was administered to 7-week-old female BALB/c (BALB/cAnN CrlCrlj) mice intravenously (dosage: 1 mg/kg) in a 50% PEG solution (0.01 mol/L HCl) or orally (dosage: 10 mg/kg) in a 0.5% methylcellulose aqueous solution, and blood was collected at the following times:
Intravenous administration: 5 min, 15 min, 30 min, 1 hr, 2 hr, 4 hr, 6 hr, and 24 hr after administration
Oral administration: 15 min, 30 min, 1 hr, 2 hr, 4 hr, 6 hr, and 24 hr after administration
The collected blood was centrifuged at 3000 rpm×10 min using a refrigerated centrifuge set at 4° C., and the obtained plasma was measured by LC-MS. A calibration curve was prepared from the value (peak ratio) obtained by dividing the peak area of the test substance by the peak area of the internal standard substance in MS and the concentration of the plasma calibration curve sample. The concentration in the sample was calculated from the peak ratio and the calibration curve of each sample.

Setting [5] is: pH 5.0, 37° C., read-out: pH 5.0 Pe.
Setting [6] is: pH 7.4, 37° C., read-out: pH 7.4 Pe.

recombinant p300, sequence (Q09472 whole entry): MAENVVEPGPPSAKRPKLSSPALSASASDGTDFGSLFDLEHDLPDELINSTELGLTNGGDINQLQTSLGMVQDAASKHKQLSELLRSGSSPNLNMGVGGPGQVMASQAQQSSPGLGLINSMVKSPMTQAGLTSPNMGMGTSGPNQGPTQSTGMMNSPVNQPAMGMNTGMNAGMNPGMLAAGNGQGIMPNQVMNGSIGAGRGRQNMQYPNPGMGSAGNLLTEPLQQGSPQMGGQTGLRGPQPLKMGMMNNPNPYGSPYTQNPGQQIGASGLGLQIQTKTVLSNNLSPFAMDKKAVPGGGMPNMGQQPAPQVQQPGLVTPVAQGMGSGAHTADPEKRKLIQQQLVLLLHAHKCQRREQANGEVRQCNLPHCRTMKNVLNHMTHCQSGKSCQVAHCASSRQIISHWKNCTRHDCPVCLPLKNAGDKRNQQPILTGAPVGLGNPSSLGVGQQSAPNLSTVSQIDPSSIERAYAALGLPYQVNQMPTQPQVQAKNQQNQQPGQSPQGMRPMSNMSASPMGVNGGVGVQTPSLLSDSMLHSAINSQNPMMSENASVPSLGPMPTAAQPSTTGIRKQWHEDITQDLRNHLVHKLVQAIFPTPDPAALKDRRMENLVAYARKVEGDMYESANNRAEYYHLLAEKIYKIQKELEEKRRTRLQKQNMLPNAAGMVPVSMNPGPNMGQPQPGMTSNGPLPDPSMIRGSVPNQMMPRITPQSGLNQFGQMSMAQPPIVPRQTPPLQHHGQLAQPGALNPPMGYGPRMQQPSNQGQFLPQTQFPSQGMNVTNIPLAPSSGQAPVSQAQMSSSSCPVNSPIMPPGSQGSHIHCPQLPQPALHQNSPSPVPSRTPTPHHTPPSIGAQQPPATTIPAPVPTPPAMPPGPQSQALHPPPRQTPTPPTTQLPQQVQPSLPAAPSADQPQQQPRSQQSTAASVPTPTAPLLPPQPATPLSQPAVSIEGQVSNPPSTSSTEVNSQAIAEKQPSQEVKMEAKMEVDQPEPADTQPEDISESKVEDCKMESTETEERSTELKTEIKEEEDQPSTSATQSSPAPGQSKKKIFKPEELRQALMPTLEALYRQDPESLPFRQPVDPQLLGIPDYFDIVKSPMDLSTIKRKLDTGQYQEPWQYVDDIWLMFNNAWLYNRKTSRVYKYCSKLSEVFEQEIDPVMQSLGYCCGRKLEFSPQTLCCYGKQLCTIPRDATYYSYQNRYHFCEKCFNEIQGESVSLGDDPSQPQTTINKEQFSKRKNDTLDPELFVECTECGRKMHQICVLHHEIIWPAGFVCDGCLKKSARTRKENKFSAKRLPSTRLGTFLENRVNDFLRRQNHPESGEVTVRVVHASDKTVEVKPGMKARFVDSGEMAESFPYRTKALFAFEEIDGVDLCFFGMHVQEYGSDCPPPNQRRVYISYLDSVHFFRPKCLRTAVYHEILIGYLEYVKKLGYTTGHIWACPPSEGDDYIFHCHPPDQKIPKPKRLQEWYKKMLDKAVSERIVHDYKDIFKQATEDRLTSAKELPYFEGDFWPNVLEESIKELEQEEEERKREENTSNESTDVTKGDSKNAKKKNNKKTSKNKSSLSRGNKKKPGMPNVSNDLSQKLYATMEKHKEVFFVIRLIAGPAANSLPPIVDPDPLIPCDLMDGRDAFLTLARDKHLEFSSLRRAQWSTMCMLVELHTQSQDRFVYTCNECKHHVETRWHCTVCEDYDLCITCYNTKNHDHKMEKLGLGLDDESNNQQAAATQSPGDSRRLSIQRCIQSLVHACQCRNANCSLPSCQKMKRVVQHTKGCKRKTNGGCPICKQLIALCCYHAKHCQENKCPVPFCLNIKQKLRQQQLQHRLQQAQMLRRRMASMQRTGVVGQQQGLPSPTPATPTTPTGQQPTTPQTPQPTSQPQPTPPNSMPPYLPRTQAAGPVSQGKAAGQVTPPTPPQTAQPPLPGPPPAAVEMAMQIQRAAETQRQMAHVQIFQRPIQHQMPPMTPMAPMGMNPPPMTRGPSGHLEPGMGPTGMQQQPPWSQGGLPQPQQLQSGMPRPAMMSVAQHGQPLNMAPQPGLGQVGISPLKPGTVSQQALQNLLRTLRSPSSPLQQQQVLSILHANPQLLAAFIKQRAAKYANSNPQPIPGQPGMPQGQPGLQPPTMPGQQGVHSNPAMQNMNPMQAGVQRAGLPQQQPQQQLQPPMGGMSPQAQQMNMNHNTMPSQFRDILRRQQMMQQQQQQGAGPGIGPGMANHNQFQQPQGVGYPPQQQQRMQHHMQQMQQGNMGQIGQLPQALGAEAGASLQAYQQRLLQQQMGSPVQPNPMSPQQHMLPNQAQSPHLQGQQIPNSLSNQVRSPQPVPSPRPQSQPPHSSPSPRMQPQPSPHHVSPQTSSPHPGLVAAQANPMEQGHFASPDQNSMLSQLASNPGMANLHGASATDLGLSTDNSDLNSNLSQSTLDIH

As for `O=C1N[C@]2(CCc3cc(-c4cnn(C5CN(C6COC6)C5)c4)ccc32)C(=O)N1CC(=O)N(Cc1ccc(F)cc1)C1(C(F)(F)F)CC(F)(F)C1` [Example 5, N-[3,3-difluoro-1-(trifluoromethyl)cyclobutyl]-N-[(4-fluorophenyl)methyl]-2-[(1'S)-5′-{1-[1-(oxetan-3-yl)azetidin-3-yl]-1H-pyrazol-4-yl}-2,5-dioxo-2′,3′-dihydrospiro[imidazolidine-4,1′-inden]-1-yl]acetamide], the IC50 in data set [1] was 6.1 nM. In data set [2], this molecule showed an IC50 of 88 nM. Also, the Papp at 4 h in data set [3] (setting [5]) was determined as 25.4 ×10⁻⁶ cm/s. The Papp at 4 h in data set [3] (setting [6]) is 28.4 ×10⁻⁶ cm/s. For the same molecule, in data set [4] (intravenous, 1 mg/kg), the AUC stood at 875 ng·h/mL, the clearance turned out to be 17.6 mL/min/kg, the half-life is 1.75 h and the Vd came to 2.1 L/kg. In data set [4] (oral, 10 mg/kg), this molecule registered an AUC of 7300 ng·h/mL, a Cmax of 3500 ng/mL and a BA of 83.4%.

On to `CN1CC(N(Cc2ccc(F)cc2)C(=O)CN2C(=O)N[C@]3(CCc4cc(-c5cnn(C)c5)ccc43)C2=O)(C(F)(F)F)C1` [Example 12, N-[(4-fluorophenyl)methyl]-2-[(1′S)-5′-(1-methyl-1H-pyrazol-4-yl)-2,5-dioxo-2′,3′-dihydrospiro[imidazolidine-4,1′-inden]-1-yl]-N-[1-methyl-3-(trifluoromethyl)azetidin-3-yl]acetamide], for which the IC50 in data set [1] amounted to 6.3 nM. The molecule further registered an IC50 in data set [2] of 82 nM. Further, the Papp at 4 h in data set [3] (setting [5]) was found to be 24 ×10⁻⁶ cm/s. The Papp at 4 h in data set [3] (setting [6]) worked out at 28.9 ×10⁻⁶ cm/s. For the same molecule, in data set [4] (intravenous, 1 mg/kg), the exposure (AUC) was determined as 465 ng·h/mL, the clearance was 35.7 mL/min/kg, the half-life was 0.97 h and the Vd was 1.6 L/kg. In data set [4] (oral, 10 mg/kg), the AUC was 1400 ng·h/mL, the concentration peaked (Cmax) at 1290 ng/mL and the BA was 30.0%.

With `O=C1N[C@]2(C[C@@H](F)c3cc(-c4cnn(C5CN(C6COC6)C5)c4)ccc32)C(=O)N1CC(=O)N(Cc1ccc(F)cc1)C1(C(F)(F)F)CC(F)(F)C1` [Example 4, N-[3,3-difluoro-1-(trifluoromethyl)cyclobutyl]-2-[(1′S,3′R)-3′-fluoro-5′-{1-[1-(oxetan-3-yl)azetidin-3-yl]-1H-pyrazol-4-yl}-2,5-dioxo-2′,3′-dihydrospiro[imidazolidine-4,1′-inden]-1-yl]-N-[(4-fluorophenyl)methyl]acetamide], the IC50 in data set [1] stood at 0.5 nM. The molecule also yielded a half-maximal inhibitory concentration (IC50) in data set [2] of 43 nM. The Papp at 4 h in data set [3] (setting [5]) is 25.7 ×10⁻⁶ cm/s. Also, the Papp at 4 h in data set [3] (setting [6]) was determined as 31.2 ×10⁻⁶ cm/s. In data set [4] (intravenous, 1 mg/kg), the AUC came to 2100 ng·h/mL, the clearance was 6.8 mL/min/kg, the half-life is 2.3 h and the Vd is 1.2 L/kg. In data set [4] (oral, 10 mg/kg), this molecule displayed an AUC of 28700 ng·h/mL, a Cmax of 8300 ng/mL and a BA of 136.3%.

Turning to `CN1CC(N(Cc2ccc(F)cc2)C(=O)CN2C(=O)N[C@]3(CCc4cc(-c5cn(C)nc5F)ccc43)C2=O)(C(F)(F)F)C1` [Example 18, 2-[(1′S)-5′-(3-fluoro-1-methyl-1H-pyrazol-4-yl)-2,5-dioxo-2′,3′-dihydrospiro[imidazolidine-4,1′-inden]-1-yl]-N-[(4-fluorophenyl)methyl]-N-[1-methyl-3-(trifluoromethyl)azetidin-3-yl]acetamide], the values for the IC50 in data set [1] and in data set [2] were 58.2 nM and 292 nM, respectively. Also, the Papp at 4 h was 28.6 ×10⁻⁶ cm/s in data set [3] (setting [5]) and 31.8 ×10⁻⁶ cm/s in data set [3] (setting [6]).

With `CN1CC(N(Cc2ccc(F)cc2)C(=O)CN2C(=O)N[C@]3(C[C@@H](F)c4cc(-c5cnn(C)c5)c(F)cc43)C2=O)(C(F)(F)F)C1` [Example 29, 2-[(1′S,3′R)-3′,6′-difluoro-5′-(1-methyl-1H-pyrazol-4-yl)-2,5-dioxo-2′,3′-dihydrospiro[imidazolidine-4,1′-inden]-1-yl]-N-[(4-fluorophenyl)methyl]-N-[1-methyl-3-(trifluoromethyl)azetidin-3-yl]acetamide], the values for the IC50 in data set [1] and in data set [2] were 2.8 nM and 17 nM, respectively. Moreover, the Papp at 4 h in data set [3] (setting [5]) came out at 23.9 ×10⁻⁶ cm/s; in data set [3] (setting [6]) it was 28.3 ×10⁻⁶ cm/s.

`O=C1N[C@]2(CCc3cc(-c4cnn(C5CN(C6COC6)C5)c4)ccc32)C(=O)N1CC(=O)N(Cc1ccc(F)cc1)C1(C(F)(F)F)COC1` [Example 1, N-[(4-fluorophenyl)methyl]-2-[(1′S)-5′-{1-[1-(oxetan-3-yl)azetidin-3-yl]-1H-pyrazol-4-yl}-2,5-dioxo-2′,3′-dihydrospiro[imidazolidine-4,1′-inden]-1-yl]-N-[3-(trifluoromethyl)oxetan-3-yl]acetamide]: the IC50 in data set [1] was 16 nM. This molecule yielded an IC50 in data set [2] of 181 nM. In addition, in data set [3] (setting [5]), the Papp at 4 h came out at 16.2 ×10⁻⁶ cm/s. The Papp at 4 h in data set [3] (setting [6]) stood at 20.6 ×10⁻⁶ cm/s. Also, in data set [4] (intravenous, 1 mg/kg), the AUC was 575 ng·h/mL, the clearance is 28.6 mL/min/kg, the half-life was 1.1 h and the Vd was 1.8 L/kg. In data set [4] (oral, 10 mg/kg), this molecule registered an AUC of 4350 ng·h/mL, a Cmax of 3770 ng/mL and a BA of 75.7%.

Consider `CN1CC(N(Cc2ccc(F)cc2)C(=O)CN2C(=O)N[C@]3(C[C@@H](F)c4cc(-c5cn(C)nc5F)ccc43)C2=O)(C(F)(F)F)C1` [Example 17, 2-[(1′S,3′R)-3′-fluoro-5′-(3-fluoro-1-methyl-1H-pyrazol-4-yl)-2,5-dioxo-2′,3′-dihydrospiro[imidazolidine-4,1′-inden]-1-yl]-N-[(4-fluorophenyl)methyl]-N-[1-methyl-3-(trifluoromethyl)azetidin-3-yl]acetamide], for which the IC50 in data set [1] stood at 2.3 nM; in data set [2], 25 nM. In addition, the figures for the Papp at 4 h in data set [3] (setting [5]) and in data set [3] (setting [6]) were 28.1 ×10⁻⁶ cm/s and 32.2 ×10⁻⁶ cm/s, respectively.

In the case of `CN1CC(N(Cc2ccc(F)cn2)C(=O)CN2C(=O)N[C@]3(C[C@@H](F)c4cc(-c5cnn(C(C)(C)C#N)c5)ccc43)C2=O)(C(F)(F)F)C1` [Example 26, 2-{(1′S,3′R)-5′-[1-(2-cyanopropan-2-yl)-1H-pyrazol-4-yl]-3′-fluoro-2,5-dioxo-2′,3′-dihydrospiro[imidazolidine-4,1′-inden]-1-yl}-N-[(5-fluoropyridin-2-yl)methyl]-N-[1-methyl-3-(trifluoromethyl)azetidin-3-yl]acetamide], the IC50 in data set [1] worked out at 9.2 nM; in data set [2], 14 nM. For the same molecule, the figures for the Papp at 4 h in data set [3] (setting [5]) and in data set [3] (setting [6]) were 10.2 ×10⁻⁶ cm/s and 16.3 ×10⁻⁶ cm/s, respectively.
